Assay [1] has as its target T1, Oxysterols receptor LXR-beta (Homo sapiens, UniProt P55055).
T1 sequence (P55055 whole entry): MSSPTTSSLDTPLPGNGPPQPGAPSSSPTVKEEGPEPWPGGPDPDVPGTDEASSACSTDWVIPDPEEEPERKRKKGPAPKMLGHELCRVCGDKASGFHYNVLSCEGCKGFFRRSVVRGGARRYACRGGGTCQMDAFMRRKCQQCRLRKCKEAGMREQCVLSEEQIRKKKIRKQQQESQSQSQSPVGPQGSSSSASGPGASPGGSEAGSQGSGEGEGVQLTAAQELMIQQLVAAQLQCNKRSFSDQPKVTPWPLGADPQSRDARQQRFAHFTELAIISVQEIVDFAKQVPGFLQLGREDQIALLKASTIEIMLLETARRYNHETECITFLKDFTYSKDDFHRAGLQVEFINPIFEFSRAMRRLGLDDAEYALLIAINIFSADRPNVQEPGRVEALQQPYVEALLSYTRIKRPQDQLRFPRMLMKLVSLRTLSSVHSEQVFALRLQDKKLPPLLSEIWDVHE
The class given is functional.

Assay [2] deals with T2, Oxysterols receptor LXR-alpha (Homo sapiens, UniProt Q13133).
T2 sequence (Q13133 whole entry): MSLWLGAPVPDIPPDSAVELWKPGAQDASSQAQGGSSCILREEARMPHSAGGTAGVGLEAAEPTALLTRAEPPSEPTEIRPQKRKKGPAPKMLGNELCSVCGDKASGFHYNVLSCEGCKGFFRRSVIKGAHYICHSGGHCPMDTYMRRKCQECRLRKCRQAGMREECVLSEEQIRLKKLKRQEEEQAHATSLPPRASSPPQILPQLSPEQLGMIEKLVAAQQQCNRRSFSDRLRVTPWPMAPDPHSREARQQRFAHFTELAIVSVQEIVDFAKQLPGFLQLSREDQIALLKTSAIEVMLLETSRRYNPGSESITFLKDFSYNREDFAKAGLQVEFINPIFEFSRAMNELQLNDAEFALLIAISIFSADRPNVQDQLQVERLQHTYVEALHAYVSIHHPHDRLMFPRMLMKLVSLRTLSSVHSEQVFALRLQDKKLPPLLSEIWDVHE
The class given is functional.

The target in assay [3] is T2, Oxysterols receptor LXR-alpha. The class given is functional. The source holds these as a separate data set.
For assay [4], the target named is T3, Peroxisome proliferator-activated receptor alpha (Homo sapiens, UniProt Q07869).
T3 sequence (Q07869 whole entry): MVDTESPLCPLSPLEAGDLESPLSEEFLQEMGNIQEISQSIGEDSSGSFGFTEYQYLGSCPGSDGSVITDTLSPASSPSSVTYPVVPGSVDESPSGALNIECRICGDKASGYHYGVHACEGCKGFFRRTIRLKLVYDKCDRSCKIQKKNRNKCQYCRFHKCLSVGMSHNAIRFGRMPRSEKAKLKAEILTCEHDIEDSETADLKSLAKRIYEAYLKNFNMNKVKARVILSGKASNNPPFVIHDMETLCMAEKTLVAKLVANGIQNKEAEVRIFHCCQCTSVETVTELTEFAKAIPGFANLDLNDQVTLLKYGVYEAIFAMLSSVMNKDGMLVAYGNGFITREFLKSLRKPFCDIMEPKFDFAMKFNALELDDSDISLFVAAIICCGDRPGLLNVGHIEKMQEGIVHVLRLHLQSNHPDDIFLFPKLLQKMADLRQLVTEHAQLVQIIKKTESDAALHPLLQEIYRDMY
The class given is functional.

Assay [5] deals with T4, Retinoic acid receptor beta (Homo sapiens, UniProt P10826).
T4 sequence (P10826 whole entry): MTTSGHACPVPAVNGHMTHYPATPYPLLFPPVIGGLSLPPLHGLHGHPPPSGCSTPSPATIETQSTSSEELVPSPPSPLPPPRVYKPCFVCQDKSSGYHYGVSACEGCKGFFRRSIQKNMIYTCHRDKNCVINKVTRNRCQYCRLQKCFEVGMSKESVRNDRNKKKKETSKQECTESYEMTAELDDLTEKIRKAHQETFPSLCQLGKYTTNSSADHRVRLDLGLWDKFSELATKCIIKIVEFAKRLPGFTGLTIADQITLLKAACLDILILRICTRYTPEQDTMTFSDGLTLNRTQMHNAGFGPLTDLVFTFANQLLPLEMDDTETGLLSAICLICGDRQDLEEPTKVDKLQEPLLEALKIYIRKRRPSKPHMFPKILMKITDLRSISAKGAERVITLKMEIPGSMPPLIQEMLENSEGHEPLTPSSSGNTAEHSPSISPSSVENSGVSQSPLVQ
The class given is functional, cell-based.

Assay [6] addresses T4, Retinoic acid receptor beta. The class given is functional, cell-based. The source holds these as a separate data set.
Assay [7] has as its target T5, Retinoic acid receptor gamma (Homo sapiens, UniProt P13631).
T5 sequence (P13631 whole entry): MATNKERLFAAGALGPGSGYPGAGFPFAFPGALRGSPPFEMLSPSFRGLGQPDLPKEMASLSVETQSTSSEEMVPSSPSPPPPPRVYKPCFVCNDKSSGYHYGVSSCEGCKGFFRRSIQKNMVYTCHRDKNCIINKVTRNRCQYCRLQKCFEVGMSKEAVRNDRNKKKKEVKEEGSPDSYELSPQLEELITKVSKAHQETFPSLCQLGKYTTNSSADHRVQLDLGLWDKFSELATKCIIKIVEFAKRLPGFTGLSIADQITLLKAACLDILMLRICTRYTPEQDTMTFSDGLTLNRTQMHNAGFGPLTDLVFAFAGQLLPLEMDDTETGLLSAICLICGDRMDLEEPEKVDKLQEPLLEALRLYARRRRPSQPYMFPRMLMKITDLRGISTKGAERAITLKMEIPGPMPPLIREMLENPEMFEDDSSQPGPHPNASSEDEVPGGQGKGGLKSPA
The class given is functional, cell-based.

Assay [8] has as its target T5, Retinoic acid receptor gamma. The class given is functional, cell-based. The source holds these as a separate data set.
Further: assay procedure not described here.

As to `CC(=O)N1CCN(c2ccc(OCC3COC(Cn4ccnc4)(c4ccc(Cl)cc4Cl)O3)cc2)CC1` (stereo not drawn) [KETOCONAZOLE], the half-maximal activity concentration (AC50) in assay [1] is 4.7 µM; in assay [2] it was above 30 µM; in assay [3] it was above 10 µM; in assay [4] it was above 30 µM; in assay [5], above 30 µM; in assay [6] it was 3.3 µM. Besides, the concentration at half-maximal activity (AC50) in assay [7] and in assay [8] was above 30 µM throughout.

What is called AC50 is the concentration at which the activity in the assay is half-maximal. Lower therefore signals activity at low concentration.

(Values after ChEMBL document CHEMBL5291721, “A preclinical secondary pharmacology resource illuminates target-adverse drug reaction associations of marketed drugs” (Nat Commun, 2023).)
